# Measurements as given in patent US20250000843A1, “LIGNAN-INSPIRED COMPOUNDS, METHODS OF MAKING, AND USING THEREOF” (IOWAIBO, INC., priority 2023, published 2025).
# Target: telomerase (Homo sapiens, UniProt O14746)
# Assay: Q-TRAP telomerase activity in PC3 prostate cancer cells
# Type: cell-based
# Parameters: allow the enzymatic addition of telomeric DNA repeats by endogenous telomerase; endogenous in cells; host or cells: PC3 prostate cancer cells (protein extract of lysed cell pellets); key to Significance of RTA difference vs. control: No: non-significant; Yes (*): p < 0.05; Yes (**): p < 0.01; Yes (***): p < 0.001; Yes (****): p < 0.0001
# Conditions: for telomerase inhibition effect: PC3 prostate cancer cell line
# Experimental: The general mechanism of the Q-TRAP technique involves cellular pellets being lysed for protein extraction which is then subsequently quantified and stored under specific conditions to avoid protein degradation. Protein obtained in the process was used within 72 hours and samples were stored at 4° C. Telomerase protein extracts are then incubated with a specific oligonucleotide substrate to allow the enzymatic addition of telomeric DNA repeats by endogenous telomerase. Following the enzymatic reaction, telomerase extension products are then amplified and quantified by real-time qPCR. In real time PCR, a positive reaction is detected by accumulation of a fluorescent signal. The Ct (cycle threshold) is defined as the number of cycles required for fluorescence to cross the threshold (i.e.: exceeds background levels). […] Data are reported as relative telomerase activity (RTA). […] Telomeric repeat amplification protocol (TRAP) was modified for quantitative real-time PCR (Q-TRAP) and was used to determine the effect of dibenzyl butyl lactone derivative on telomerase activity in prostate cancer cell. The same methods as used in Example 3 were employed. The same abbreviation scheme as presented in Table 7 is used throughout this example as well.
# Sequence of telomerase (O14746 whole entry): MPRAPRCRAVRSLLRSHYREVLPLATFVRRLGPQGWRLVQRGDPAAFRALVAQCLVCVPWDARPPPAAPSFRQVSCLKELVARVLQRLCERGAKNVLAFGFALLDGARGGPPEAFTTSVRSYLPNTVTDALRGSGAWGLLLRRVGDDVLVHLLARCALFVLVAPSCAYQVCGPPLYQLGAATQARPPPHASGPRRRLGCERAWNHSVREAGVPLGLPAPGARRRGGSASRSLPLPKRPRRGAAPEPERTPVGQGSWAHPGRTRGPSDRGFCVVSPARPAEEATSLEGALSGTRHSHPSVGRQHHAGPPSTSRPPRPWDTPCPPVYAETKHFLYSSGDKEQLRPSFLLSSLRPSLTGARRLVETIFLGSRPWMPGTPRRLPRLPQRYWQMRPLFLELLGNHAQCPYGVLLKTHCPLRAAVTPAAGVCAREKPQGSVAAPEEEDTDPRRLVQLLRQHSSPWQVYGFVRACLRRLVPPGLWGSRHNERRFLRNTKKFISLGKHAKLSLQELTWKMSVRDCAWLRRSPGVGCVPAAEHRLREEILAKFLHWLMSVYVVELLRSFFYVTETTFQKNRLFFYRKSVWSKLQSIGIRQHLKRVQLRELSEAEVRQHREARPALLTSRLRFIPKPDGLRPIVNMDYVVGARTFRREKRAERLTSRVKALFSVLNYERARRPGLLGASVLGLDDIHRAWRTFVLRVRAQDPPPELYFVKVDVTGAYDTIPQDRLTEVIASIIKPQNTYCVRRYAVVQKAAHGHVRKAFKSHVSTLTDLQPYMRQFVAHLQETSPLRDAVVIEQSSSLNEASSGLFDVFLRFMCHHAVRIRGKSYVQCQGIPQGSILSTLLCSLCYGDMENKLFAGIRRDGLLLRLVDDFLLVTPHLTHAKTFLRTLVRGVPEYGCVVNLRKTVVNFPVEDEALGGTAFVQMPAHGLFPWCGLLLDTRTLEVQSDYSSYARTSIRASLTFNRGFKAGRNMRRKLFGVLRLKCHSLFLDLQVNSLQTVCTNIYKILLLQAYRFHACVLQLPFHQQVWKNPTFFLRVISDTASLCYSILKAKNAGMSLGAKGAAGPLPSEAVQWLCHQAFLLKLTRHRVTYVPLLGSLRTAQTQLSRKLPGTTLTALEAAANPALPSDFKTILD
# Sequence of telomerase (O60832 whole entry partner): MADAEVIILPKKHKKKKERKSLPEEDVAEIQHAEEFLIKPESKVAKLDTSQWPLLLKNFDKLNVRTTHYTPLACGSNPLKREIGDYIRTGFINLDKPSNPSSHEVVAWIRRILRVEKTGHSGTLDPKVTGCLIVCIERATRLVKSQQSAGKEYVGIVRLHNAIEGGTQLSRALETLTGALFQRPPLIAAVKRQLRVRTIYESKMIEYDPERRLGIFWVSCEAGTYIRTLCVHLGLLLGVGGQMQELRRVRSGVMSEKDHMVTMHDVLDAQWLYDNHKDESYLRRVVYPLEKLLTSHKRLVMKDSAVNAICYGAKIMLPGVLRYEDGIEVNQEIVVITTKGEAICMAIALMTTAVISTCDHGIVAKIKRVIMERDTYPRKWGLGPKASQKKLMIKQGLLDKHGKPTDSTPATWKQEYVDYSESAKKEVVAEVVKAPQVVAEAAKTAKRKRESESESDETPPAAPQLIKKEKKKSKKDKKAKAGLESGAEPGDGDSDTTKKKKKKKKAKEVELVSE
# Sequence of telomerase (Q9NPE3 whole entry partner): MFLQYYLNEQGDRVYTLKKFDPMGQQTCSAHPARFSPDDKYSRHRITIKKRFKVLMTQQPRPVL
# Sequence of telomerase (Q9NX24 whole entry partner): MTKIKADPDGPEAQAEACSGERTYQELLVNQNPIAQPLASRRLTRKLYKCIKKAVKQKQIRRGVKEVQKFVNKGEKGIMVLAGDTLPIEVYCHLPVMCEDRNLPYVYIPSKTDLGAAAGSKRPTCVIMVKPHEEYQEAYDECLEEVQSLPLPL
# Sequence of telomerase (Q9NY12 whole entry partner): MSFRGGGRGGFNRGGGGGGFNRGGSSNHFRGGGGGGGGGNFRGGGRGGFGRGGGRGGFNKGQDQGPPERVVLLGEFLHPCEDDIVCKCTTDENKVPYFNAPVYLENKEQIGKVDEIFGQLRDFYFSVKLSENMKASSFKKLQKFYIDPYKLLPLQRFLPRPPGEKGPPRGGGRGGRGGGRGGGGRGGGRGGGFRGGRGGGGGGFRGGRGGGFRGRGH
# Sequence of telomerase (Q9BUR4 whole entry partner): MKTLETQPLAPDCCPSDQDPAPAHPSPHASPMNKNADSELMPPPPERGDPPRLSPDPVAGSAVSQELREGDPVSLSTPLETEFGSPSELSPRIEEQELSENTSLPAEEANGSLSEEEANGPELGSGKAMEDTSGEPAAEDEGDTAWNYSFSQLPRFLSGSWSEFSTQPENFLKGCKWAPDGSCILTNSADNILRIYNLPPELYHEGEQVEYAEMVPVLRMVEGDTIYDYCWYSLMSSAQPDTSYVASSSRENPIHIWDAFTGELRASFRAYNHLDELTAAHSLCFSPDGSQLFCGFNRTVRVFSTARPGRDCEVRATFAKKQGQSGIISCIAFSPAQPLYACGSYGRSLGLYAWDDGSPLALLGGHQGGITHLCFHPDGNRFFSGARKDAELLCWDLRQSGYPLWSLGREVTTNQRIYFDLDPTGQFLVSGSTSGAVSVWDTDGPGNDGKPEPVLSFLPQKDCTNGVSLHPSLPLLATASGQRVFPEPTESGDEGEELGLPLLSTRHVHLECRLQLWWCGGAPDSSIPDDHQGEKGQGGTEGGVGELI
SMILES,"Telomerase Activity RTA (%) (PC3, 2.5 μM, 24 Hours)","Telomerase Activity RTA (%) (PC3, 2.5 μM, 48 Hours)","Telomerase Activity RTA (%) (PC3, 2.5 μM, 72 Hours)","Telomerase Activity RTA (%) (PC3, 5 μM, 24 Hours)","Telomerase Activity RTA (%) (PC3, 5 μM, 48 Hours)","Telomerase Activity RTA (%) (PC3, 5 μM, 72 Hours)","Telomerase Activity RTA (%) (PC3, 10 μM, 24 Hours)","Telomerase Activity RTA (%) (PC3, 10 μM, 48 Hours)","Telomerase Activity RTA (%) (PC3, 10 μM, 72 Hours)","Telomerase Activity RTA (%) (PC3, 20 μM, 24 Hours)","Telomerase Activity RTA (%) (PC3, 20 μM, 48 Hours)","Telomerase Activity RTA (%) (PC3, 20 μM, 72 Hours)","Telomerase Activity RTA (%) (PC3, 40 μM, 24 Hours)","Telomerase Activity RTA (%) (PC3, 40 μM, 48 Hours)","Telomerase Activity RTA (%) (PC3, 40 μM, 72 Hours)","IC50 (PC3, 24 h)","telomerase activity levels of treated groups compared to control (PC3, 24 hours)","Significance of RTA difference vs. control (PC3, 24 hours, 2.5 μM)","Significance of RTA difference vs. control (PC3, 24 hours, 5 μM)","Significance of RTA difference vs. control (PC3, 24 hours, 10 μM)",also measured
"O=C1OC[C@H](Cc2cccc(O)c2)[C@H]1Cc1cccc(O)c1 (racemic) [Enterolactone, reference compound]",61.02%,3.50%,13.88%,55.90%,3.31%,10.65%,62.45%,17.89%,12.63%,56.77%,25.39%,5.15%,43.75%,70.42%,6.57%,21.9 µM,lower telomerase activity levels compared to control,No,No,No,"Significance of RTA difference vs. control (PC3, 24 hours, 20 μM): No; Significance of RTA difference vs. control (PC3, 24 hours, 40 μM): Yes (*) (Yes (*): p < 0.05); IC50 (PC3, 48 h): 0.05 µM; telomerase activity levels of treated groups compared to control (PC3, 48 hours): four treated groups presented a reduction in RTA; Significance of RTA difference vs. control (PC3, 48 hours, 2.5 μM): Yes (***) (Yes (***): p < 0.001); Significance of RTA difference vs. control (PC3, 48 hours, 5 μM): Yes (***) (Yes (***): p < 0.001); Significance of RTA difference vs. control (PC3, 48 hours, 10 μM): Yes (**) (Yes (**): p < 0.01); Significance of RTA difference vs. control (PC3, 48 hours, 20 μM): Yes (**) (Yes (**): p < 0.01); Significance of RTA difference vs. control (PC3, 48 hours, 40 μM): No; IC50 (PC3, 72 h): 10.7 µM; telomerase activity levels of treated groups compared to control (PC3, 72 hours): no significant differences were detected between control and treated groups; Significance of RTA difference vs. control (PC3, 72 hours, 2.5 μM): No; Significance of RTA difference vs. control (PC3, 72 hours, 5 μM): No; Significance of RTA difference vs. control (PC3, 72 hours, 10 μM): No; Significance of RTA difference vs. control (PC3, 72 hours, 20 μM): No; Significance of RTA difference vs. control (PC3, 72 hours, 40 μM): No"
"O=C1OCC(Cc2ccc3c(c2)OCO3)/C1=C\c1cccc(O)c1 (single isomer, unassigned) [Enantiomer B, 3-[(3,4-dimethoxyphenyl)cyclopentyl], 4-[(3-hydroxyphenol)methyl]oxolan-2-one]",48.73%,126.77%,13.05%,36.48%,112.17%,11.67%,23.87%,102.96%,12.58%,31.05%,154.17%,7.53%,14.44%,128.83%,13.49%,2.99 µM,lower telomerase activity levels compared to control,Yes (*) (Yes (*): p < 0.05),Yes (**) (Yes (**): p < 0.01),Yes (**) (Yes (**): p < 0.01),"Significance of RTA difference vs. control (PC3, 24 hours, 20 μM): Yes (**) (Yes (**): p < 0.01); Significance of RTA difference vs. control (PC3, 24 hours, 40 μM): Yes (***) (Yes (***): p < 0.001); IC50 (PC3, 48 h): 15.4 µM; telomerase activity levels of treated groups compared to control (PC3, 48 hours): the differences were not found to be significant; Significance of RTA difference vs. control (PC3, 48 hours, 2.5 μM): No; Significance of RTA difference vs. control (PC3, 48 hours, 5 μM): No; Significance of RTA difference vs. control (PC3, 48 hours, 10 μM): No; Significance of RTA difference vs. control (PC3, 48 hours, 20 μM): No; Significance of RTA difference vs. control (PC3, 48 hours, 40 μM): No; IC50 (PC3, 72 h): 2.38 µM; telomerase activity levels of treated groups compared to control (PC3, 72 hours): without any particular differences between the treated and control groups; Significance of RTA difference vs. control (PC3, 72 hours, 2.5 μM): No; Significance of RTA difference vs. control (PC3, 72 hours, 5 μM): No; Significance of RTA difference vs. control (PC3, 72 hours, 10 μM): No; Significance of RTA difference vs. control (PC3, 72 hours, 20 μM): Yes (*) (Yes (*): p < 0.05); Significance of RTA difference vs. control (PC3, 72 hours, 40 μM): No; telomerase inhibition effect: exhibits a telomerase inhibition effect at 24 hours"
"O=C1OCC(Cc2ccc3c(c2)OCO3)/C1=C\c1cccc(O)c1 (single isomer, unassigned) [Enantiomer A, 3-[(3,4-dimethoxyphenyl)cyclopentyl], 4-[(3-hydroxyphenol)methyl]oxolan-2-one]",49.67%,21.48%,18.63%,44.11%,7.86%,15.77%,20.76%,3.60%,19.40%,22.61%,2.51%,5.20%,29.78%,6.23%,1.48%,5.18 µM,lower telomerase activity levels compared to control,No,Yes (*) (Yes (*): p < 0.05),Yes (**) (Yes (**): p < 0.01),"Significance of RTA difference vs. control (PC3, 24 hours, 20 μM): Yes (***) (Yes (***): p < 0.001); Significance of RTA difference vs. control (PC3, 24 hours, 40 μM): Yes (**) (Yes (**): p < 0.01); IC50 (PC3, 48 h): 4.71 µM; telomerase activity levels of treated groups compared to control (PC3, 48 hours): lower telomerase activity levels compared to control; Significance of RTA difference vs. control (PC3, 48 hours, 2.5 μM): No; Significance of RTA difference vs. control (PC3, 48 hours, 5 μM): Yes (*) (Yes (*): p < 0.05); Significance of RTA difference vs. control (PC3, 48 hours, 10 μM): Yes (**) (Yes (**): p < 0.01); Significance of RTA difference vs. control (PC3, 48 hours, 20 μM): Yes (**) (Yes (**): p < 0.01); Significance of RTA difference vs. control (PC3, 48 hours, 40 μM): Yes (*) (Yes (*): p < 0.05); IC50 (PC3, 72 h): 18.7 µM; telomerase activity levels of treated groups compared to control (PC3, 72 hours): lower telomerase activity levels compared to control; Significance of RTA difference vs. control (PC3, 72 hours, 2.5 μM): No; Significance of RTA difference vs. control (PC3, 72 hours, 5 μM): Yes (*) (Yes (*): p < 0.05); Significance of RTA difference vs. control (PC3, 72 hours, 10 μM): No; Significance of RTA difference vs. control (PC3, 72 hours, 20 μM): Yes (*) (Yes (*): p < 0.05); Significance of RTA difference vs. control (PC3, 72 hours, 40 μM): Yes (**) (Yes (**): p < 0.01); telomerase inhibition effect: exhibits a telomerase inhibition effect in a PC3 prostate cancer cell line that is more prolonged throughout all time points"
